Patent US6608082B1, “Treatment of erectile dysfunction using isoquinoline compound melanocortin receptor ligands” (Lion Bioscience AG, priority 1998, dated 2003)

Target: T1, MCR-1 (Homo sapiens, UniProt Q01726)
T1 construct: expressed in transfected cells; host or cells: HEK 293
Assay: Melanocortin receptor binding assay, competition with 125I-HP 467, HEK 293 cells expressing hMCR-1
Settings: displacement of 125I-HP 467 at 10 μM isoquinoline compound
Experimental: All cell culture media and reagents were obtained from GibcoBRL (Gaithersburg Md.), except for COSMIC CALF SERUM (HyClone; Logan Utah).
Cells were suspended in PBS, 10% COSMIC CALF SERUM and 1 mM CaCl2. Cell suspensions were prepared at a density of 2×10^4 cells/ml for HEK 293 cells expressing hMCR-3, hMCR-4 or hMCR-5, and 1×10^5 cells/ml for HEK 293 cells expressing hMCR-1. Suspensions were placed in a water bath and allowed to warm to 37° C. for 1 hr.
Binding assays were performed in a total volume of 250 μl for HEK 293 cells. […] To each tube was added 4×10^3 HEK 293 cells expressing hMCR-3, hMCR-4 or hMCR-5, or 2×10^4 cells expressing hMCR-1. Assays were incubated for 2.5 hr at 37° C.
GF/B filter plates were prepared by soaking for at least one hour in 5 mg/ml BSA and 10 mM CaCl2. Assays were filtered using a Brandel 96-well cell harvester (Brandel Inc.; Gaithersburg, Md.). The filters were washed four times with cold 50 mM Tris, pH 7.4, the filter plates were dehydrated for 2 hr and 35 μl of MICROSCINT was added to each well. Filter plates were counted using a Packard Topcount (Packard Instrument Co.) and data analyzed using GraphPad PRISM v2.0 (GraphPad Software Inc.; San Diego Calif.) and Microsoft EXCEL v5.0a (Microsoft Corp.; Redmond Wash.).
To assay isoquinoline compounds, binding assays were performed in duplicate in a 96 well format. […] A 0.2 ml aliquot of suspended cells was added to each well to give the cell numbers indicate above, and the cells were incubated at 37° C. for 2.5 hr. Cells were harvested on GF/B filter plates as described above and counted.

T1 sequence (Q01726 whole entry): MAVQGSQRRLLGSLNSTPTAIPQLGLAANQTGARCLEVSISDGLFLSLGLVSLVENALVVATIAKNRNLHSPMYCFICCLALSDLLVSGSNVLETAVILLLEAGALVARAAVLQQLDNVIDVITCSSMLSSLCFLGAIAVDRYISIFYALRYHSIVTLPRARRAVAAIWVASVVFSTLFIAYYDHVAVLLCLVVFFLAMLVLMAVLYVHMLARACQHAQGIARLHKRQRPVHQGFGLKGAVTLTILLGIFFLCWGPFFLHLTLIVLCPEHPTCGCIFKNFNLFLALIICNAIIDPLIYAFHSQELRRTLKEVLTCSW

| % Disp. MC-1 10 μM (first of duplicate) [%] | % Disp. MC-1 10 μM (second of duplicate) [%] | Structure (SMILES) |
| --- | --- | --- |
| 29.7 | 43.4 | NCCN1Cc2ccccc2C(CNC2CCCCC2)C1c1ccc2ccccc2n1 (stereo not drawn) [TRG 2405-22] |
| 43 | 47.8 | NCCN1Cc2ccccc2C(CNC2CCCCC2)C1c1cccs1 (stereo not drawn) [TRG 2405-23] |
| 21.6 | 31.9 | NCCN1Cc2ccccc2C(CNC2CCCCC2)C1c1ccc(O)c(O)c1 (stereo not drawn) [TRG 2405-25] |
| 59.6 | 64.6 | NCCN1Cc2ccccc2C(CNC2CCCCC2)C1c1ccc(Cl)c(Cl)c1 (stereo not drawn) [TRG 2405-26] |
| 52.1 | 43.8 | NCCN1Cc2ccccc2C(CNC2CCCCC2)C1c1ccc(F)c(F)c1 (stereo not drawn) [TRG 2405-27] |
| 28.5 | 26.2 | NCCN1Cc2ccccc2C(CNC2CCCCC2)C1c1cc(O)cc(O)c1 (stereo not drawn) [TRG 2405-29] |
| 54.7 | 52.8 | NCCN1Cc2ccccc2C(CNC2CCCCC2)C1c1cc(Cl)cc(Cl)c1 (stereo not drawn) [TRG 2405-30] |
| 40.7 | 48.5 | COc1cc(OC)cc(C2C(CNC3CCCCC3)c3ccccc3CN2CCN)c1 (stereo not drawn) [TRG 2405-31] |
| 10.1 | 38.3 | Cc1cc(C2C(CNC3CCCCC3)c3ccccc3CN2CCN)cc(C)c1O (stereo not drawn) [TRG 2405-32] |
| 54.2 | 48.7 | NCCN1Cc2ccccc2C(CNC2CCCCC2)C1c1cccc(Oc2ccc(Cl)c(Cl)c2)c1 (stereo not drawn) [TRG 2405-33] |
| 55.6 | 56.1 | COc1ccc(Oc2cccc(C3C(CNC4CCCCC4)c4ccccc4CN3CCN)c2)cc1 (stereo not drawn) [TRG 2405-34] |
| 54.6 | 55 | NCCN1Cc2ccccc2C(CNC2CCCCC2)C1c1cccc(C(F)(F)F)c1 (stereo not drawn) [TRG 2405-35] |
| 51.8 | 53.6 | NCCN1Cc2ccccc2C(CNC2CCCCC2)C1c1ccc(F)c(Br)c1 (stereo not drawn) [TRG 2405-36] |
| 49.7 | 54.4 | NCCN1Cc2ccccc2C(CNC2CCCCC2)C1c1cccc(Br)c1 (stereo not drawn) [TRG 2405-37] |
| 23.2 | 16.9 | NCCN1Cc2ccccc2C(CNC2CCCCC2)C1c1cccc(CN)c1 (stereo not drawn) [TRG 2405-39] |
| 22.4 | 35.5 | COc1ccc(C2C(CNC3CCCCC3)c3ccccc3CN2CCN)cc1F (stereo not drawn) [TRG 2405-40] |
| 19.6 | 19.8 | NCCN1Cc2ccccc2C(CNC2CCCCC2)C1c1cccc(F)c1 (stereo not drawn) [TRG 2405-41] |
| 43.6 | 40.7 | NCCN1Cc2ccccc2C(CNC2CCCCC2)C1c1ccoc1 (stereo not drawn) [TRG 2405-42] |
| 32.3 | 23.1 | NCCN1Cc2ccccc2C(CNC2CCCCC2)C1c1cccc(O)c1 (stereo not drawn) [TRG 2405-43] |

| % Disp. MC-1 10 μM (first of duplicate) [%] | % Disp. MC-1 10 μM (second of duplicate) [%] | Structure (SMILES) |
| --- | --- | --- |
| 40.6 | 31.9 | COc1cccc(C2C(CNC3CCCCC3)c3ccccc3CN2CCN)c1 (stereo not drawn) [TRG 2405-45] |
| 46.8 | 40.3 | COc1ccc(C2C(CNC3CCCCC3)c3ccccc3CN2CCN)cc1C (stereo not drawn) [TRG 2405-46] |
| 37.2 | 42.4 | NCCN1Cc2ccccc2C(CNC2CCCCC2)C1c1cccc([N+](=O)[O-])c1 (stereo not drawn) [TRG 2405-49] |
| 61.9 | 50.8 | NCCN1Cc2ccccc2C(CNC2CCCCC2)C1c1cccc(Oc2ccccc2)c1 (stereo not drawn) [TRG 2405-50] |
| 30.6 | 23.1 | NCCN1Cc2ccccc2C(CNC2CCCCC2)C1c1cccnc1 (stereo not drawn) [TRG 2405-51] |
| 42.4 | 42.3 | NCCN1Cc2ccccc2C(CNC2CCCCC2)C1c1cnc2ccccc2c1 (stereo not drawn) [TRG 2405-52] |
| 43.3 | 43.4 | NCCN1Cc2ccccc2C(CNC2CCCCC2)C1c1ccsc1 (stereo not drawn) [TRG 2405-53] |
| 1.3 | 9 | CN(C)CCCOc1ccc(C2C(CNC3CCCCC3)c3ccccc3CN2CCN)cc1 (stereo not drawn) [TRG 2405-54] |
| 32.6 | 38.1 | CN(C)c1ccc(C2C(CNC3CCCCC3)c3ccccc3CN2CCN)cc1 (stereo not drawn) [TRG 2405-55] |
| 17.4 | 42.6 | CSc1ccc(C2C(CNC3CCCCC3)c3ccccc3CN2CCN)cc1 (stereo not drawn) [TRG 2405-57] |
| 56.3 | 46.6 | NCCN1Cc2ccccc2C(CNC2CCCCC2)C1c1ccc(C(F)(F)F)cc1 (stereo not drawn) [TRG 2405-58] |
| 34.3 | 40.1 | CCNc1ccc(C2C(CNC3CCCCC3)c3ccccc3CN2CCN)cc1 (stereo not drawn) [TRG 2405-59] |
| 41.4 | 42.4 | COc1ccc(C2C(CNC3CCCCC3)c3ccccc3CN2CCN)cc1 (stereo not drawn) [TRG 2405-60] |
| 54.7 | 61.9 | NCCN1Cc2ccccc2C(CNC2CCCCC2)C1c1ccc(-c2ccccc2)cc1 (stereo not drawn) [TRG 2405-61] |
| 32.1 | 54.3 | NCCN1Cc2ccccc2C(CNC2CCCCC2)C1c1ccc(Br)cc1 (stereo not drawn) [TRG 2405-62] |
| 49.6 | 33.9 | NCCN1Cc2ccccc2C(CNC2CCCCC2)C1c1ccc(F)cc1 (stereo not drawn) [TRG 2405-65] |
| 81.6 | 11.3 | NCCN1Cc2ccccc2C(CNC2CCCCC2)C1c1ccc(O)cc1 (stereo not drawn) [TRG 2405-66] |
| 54 | 51.3 | CC(C)c1ccc(C2C(CNC3CCCCC3)c3ccccc3CN2CCN)cc1 (stereo not drawn) [TRG 2405-67] |
| 55.3 | 52.3 | COc1ccc(C2C(CNC3CCCCC3)c3ccccc3CN2CCN)c2ccccc12 (stereo not drawn) [TRG 2405-68] |

| % Disp. MC-1 10 μM (first of duplicate) [%] | % Disp. MC-1 10 μM (second of duplicate) [%] | Structure (SMILES) |
| --- | --- | --- |
| 49.8 | 49 | Cc1ccc(C2C(CNC3CCCCC3)c3ccccc3CN2CCN)cc1 (stereo not drawn) [TRG 2405-69] |
| 19.9 | 46.7 | NCCN1Cc2ccccc2C(CNC2CCCCC2)C1c1ccc([N+](=O)[O-])c(O)c1 (stereo not drawn) [TRG 2405-70] |
| 28.2 | 40 | NCCN1Cc2ccccc2C(CNC2CCCCC2)C1c1ccc([N+](=O)[O-])cc1 (stereo not drawn) [TRG 2405-71] |
| 50.1 | 57.7 | NCCN1Cc2ccccc2C(CNC2CCCCC2)C1c1ccc(Oc2ccccc2)cc1 (stereo not drawn) [TRG 2405-72] |
| 60.1 | 60.5 | CCCOc1ccc(C2C(CNC3CCCCC3)c3ccccc3CN2CCN)cc1 (stereo not drawn) [TRG 2405-73] |
| 35.3 | 0 | NCCN1Cc2ccccc2C(CNC2CCCCC2)C1c1ccncc1 (stereo not drawn) [TRG 2405-74] |
| 38.9 | 17.6 | NCCN1Cc2ccccc2C(CNC2CCCCC2)C1c1ccnc2ccccc12 (stereo not drawn) [TRG 2405-75] |
| 33.3 | 40.8 | Cc1ccc(C2C(CNC3CCCCC3)c3ccccc3CN2CCN)s1 (stereo not drawn) [TRG 2405-78] |
| 17.3 | 26.3 | Cc1ccc(C2C(CNC3CCCCC3)c3ccccc3CN2CCN)o1 (stereo not drawn) [TRG 2405-79] |
| 0 | 43.1 | Cc1cccc(C2C(CNC3CCCCC3)c3ccccc3CN2CCN)n1 (stereo not drawn) [TRG 2405-81] |
| 18.5 | 29.6 | NCCN1Cc2ccccc2C(CNC2CCCCC2)C1c1ccc2cccc(O)c2n1 (stereo not drawn) [TRG 2405-82] |
| 39.1 | 46.9 | CCn1c2ccccc2c2cc(C3C(CNC4CCCCC4)c4ccccc4CN3CCN)ccc21 (stereo not drawn) [TRG 2405-83] |
| 18.2 | 37.5 | NCCN1Cc2ccccc2C(CNC2CCCCC2)C1c1cc2c3c(c1O)CCCN3CCC2 (stereo not drawn) [TRG 2405-84] |
| 21.9 | 22.1 | CS(=O)(=O)c1ccc(C2C(CNC3CCCCC3)c3ccccc3CN2CCN)cc1 (stereo not drawn) [TRG 2405-87] |
| 5.5 | 0 | COc1ccc(C2C(CNC3CCCCC3)c3ccccc3CN2CCN)cc1S(=O)(=O)O (stereo not drawn) [TRG 2405-88] |
| 21.5 | 31.2 | NCCN1Cc2ccccc2C(CNC2CCCCC2)C1c1ccc(Br)o1 (stereo not drawn) [TRG 2405-89] |
| 48.4 | 45.9 | NCCN1Cc2ccccc2C(CNC2CCCCC2)C1c1nccs1 (stereo not drawn) [TRG 2405-90] |
| 35.2 | 43.9 | CNC(CN)CN1Cc2ccccc2C(CNC2CCCCC2)C1c1ccccc1 (stereo not drawn) [TRG 2405-91] |
| 57.6 | 49.9 | CNC(CN)CN1Cc2ccccc2C(CNC2CCCCC2)C1c1ccccc1O (stereo not drawn) [TRG 2405-92] |
